Where two headings read alike, the source gives them in different places.
Key:
[1] = test system: human prostate cancer (PC-3); assay: xenograft model of human prostate cancer; format: in vivo; conditions: for % T/C / Comments: intraperitoneal
Description: (§1) Spisulosine 285 was tested in in vivo studies against xenograft models of human prostate cancer (PC-3) and human renal cancer (MRI-H-121). These models use subcutaneously implanted solid human tumors that grow and increase in volume over time. The mean volume of tumor growth in control animals provides the basis for comparison. […] A level of activity that is less than 40% T/C is considered statistically significant. The doses of spisulosine used were given at the maximum tolerated, non lethal dose (MTD), ½ MTD and ¼ MTD. Delivery of the drug was by the intraperitoneal route.

MX-1 = assay: expanded in vitro screen, MX-1; format: cell-based; conditions: Homo sapiens, MX1; MX-1, Mammary, solid
Description: (§2) An expanded in vitro screen was performed of spisulosine 285 against a series of different cell lines.

HT-29 = assay: expanded in vitro screen, HT-29; format: cell-based; conditions: Homo sapiens; HT-29, Colon, solid
Description: as §2

Hs 746T = assay: expanded in vitro screen, Hs 746T; format: cell-based; conditions: Homo sapiens, Hs746T, Stomach, solid
Description: as §2

Rho protein = Rho protein electrophoresis / Western blot and subcellular fractionation (Example C); format: cell-based; conditions: 0.5 mM, 20 hour
Description: The small GTP binding protein Rho is involved in the formation of actin-myosin “stress fibers” (Hall, A., Science, 279, 1998, p 509–514). Therefore, the electrophoretic mobility and cellular distribution of Rho was analyzed in cells treated with spisulosine 285.
FIG. 5 is an electrophoretogram of Example C. In panel A, equivalent amounts of protein from a cell extract from untreated (a) or from 0.5 mM spisulosine 285 treated (20 hour) cells (b) were fractionated by gel electrophoresis and blotted onto nitrocellulose paper to analyze the amount of the Rho protein.
In panel B the experiment was carried out as above, except that the homogenate was fractionated into a particulate (membrane, “M”) fraction and soluble (“S”) fraction.
Subcellular fractionation was carried out by placing cells in a hypotonic buffer (0.25 M sucrose, 20 mM HEPES pH 7.4, 2 mM EDTA, 1 mM PMSF, […] aprotinin, leupeptine and pestatine), and lysing them with a Dounce. The homogenate was first centrifuged at 750 g for 5 minutes to remove nuclei and unbroken cells, and the supernatant was further centrifuged at 30,000 g for 1 hour (4° C.) to isolate a pelleted particulate fraction (putative membrane fraction) and a supernatant. The different fractions were characterised by electrophoresis and Western Blotting using an antibody against the Rho protein.

786-0 = assay: expanded in vitro screen, 786-0; format: cell-based; conditions: Homo sapiens; 786-0, Renal, solid
Description: as §2

P-388 = assay: in vitro tumor cell line activity, P-388; format: cell-based
U-937 = assay: expanded in vitro screen, U-937; format: cell-based; conditions: Homo sapiens; U-937, Lymphoma
Description: as §2

CV-1 = assay: expanded in vitro screen, CV-1 normal cell line; format: cell-based, monkey; conditions: Primates, CV-1, Kidney fibroblasts
Description: as §2

SK-OV-3 = assay: expanded in vitro screen, SK-OV-3; format: cell-based; conditions: Homo sapiens; SK-OV-3, Ovary, solid
Description: as §2

PANC-1 = assay: expanded in vitro screen, PANC-1; format: cell-based; conditions: Homo sapiens; PANC-1, Pancreas, solid
Description: as §2

CCRF-SB = assay: expanded in vitro screen, CCRF-SB; format: cell-based; conditions: Homo sapiens, Leukemia
Description: as §2

[2] = test system: human renal cancer (MRI-H-121); assay: xenograft model of human renal cancer; format: in vivo; conditions: for % T/C / Comments: intraperitoneal
Description: as §1

HL60 = assay: expanded in vitro screen, HL60; format: cell-based; conditions: Homo sapiens, HL-60; HL60, Leukemia
Description: as §2

[3] = test system: L1210 murine lymphocytic leukemia cells; assay: L1210 cytotoxicity assay (inhibition of growth); format: cell-based
Description: The morphological effect was usually measured 30–35 h after the start of the assay and again about 24 h later, while the cytotoxicity was determined when the number of cells in the controls reached approximately 8000, usually in 3 days after the assay was begun. It should be noted that the pointed cells were live cells and that they were counted as such for the cytotoxicity reading. […] All morphologically-changed cells were counted in the pointed cell percentage.
Cytotoxicity assays against L1210 murine lymphocytic leukemia cells were performed by dissolving the samples in methanol and/or hexane were applied to the dry assay wells and the solvent was allowed to evaporate. Cells (1000) were added in minimum essential medium (MEM, 1 ml) and incubated 37° C. Inhibition of growth was recorded as the estimated percentage of living cells in sample wells versus that in control wells.

P3HR1 = assay: expanded in vitro screen, P3HR1; format: cell-based; conditions: Homo sapiens, P3HR-1; P3HR1, Burkitts
Description: as §2

FADU = assay: expanded in vitro screen, FADU; format: cell-based; conditions: Homo sapiens, Pharnynx, solid
Description: as §2

A-549 = assay: in vitro tumor cell line activity, A-549; format: cell-based
H9 = assay: expanded in vitro screen, H9; format: cell-based; conditions: Homo sapiens; H9, Lymphoma
Description: as §2

MEL-28 = assay: in vitro tumor cell line activity, MEL-28; format: cell-based
K562 = assay: expanded in vitro screen, K562; format: cell-based; conditions: Homo sapiens; K562, Leukemia
Description: as §2

SMILES: CCCCCCCCCCCCCCC[C@@H](O)[C@H](C)N [Spisulosine 285, (2S,3R)-2-Amino-3-octadecanol]
- effect on tumour size (in words) ([1]; at higher doses): significantly reducing the tumour size
- % T/C ([1]; total dose 2.499 mg/kg, day 15): 223%
- % T/C ([1]; total dose 5.010 mg/kg, day 11): −1%
- Comments ([1]; total dose 5.010 mg/kg, day 11): stasis (complete remission)
- % T/C ([1]; total dose 9.990 mg/kg, day 11): −21%
- Comments ([1]; total dose 9.990 mg/kg, day 11): stasis (complete remission)
- IC50 (MX-1): 0.0389 nM
- IC50 (HT-29): 0.00256 nM
- IC50 (Hs 746T): 0.00789 nM
- amount or mobility of Rho (Rho protein): No significant change
- proportion of Rho associated with the particulate fraction (Rho protein): decrease
- IC50 (786-0): 0.00275 nM
- active against tumor cell line in vitro (concentration) (P-388): 0.01 mg/mL
- IC50 (U-937): 0.0196 nM
- IC50 (CV-1): 0.0276 nM
- IC50 (SK-OV-3): 0.014 nM
- IC50 (PANC-1): 0.00171 nM
- IC50 (CCRF-SB): 1.05 nM
- effect on tumour growth (in words) ([2]; effects continuing up to a few weeks after the last dose): reduces the growth of the human renal cancer
- % T/C ([2]; total dose 2.499 mg/kg, day 15): 43%
- % T/C ([2]; total dose 5.010 mg/kg, day 11): 35%
- Comments ([2]; total dose 5.010 mg/kg, day 11): inhibition (partial
- % T/C ([2]; total dose 9.990 mg/kg, day 11): 28%
- Comments ([2]; total dose 9.990 mg/kg, day 11): inhibition (partial
- IC50 (HL60): 0.0085 nM
- cytotoxicity at 0.01 µg/mL ([3]; Mus musculus, L1210, 0.01 μg/ml): 45%
- cytotoxicity at […] ([3]; Mus musculus, L1210, 0.025 μg/ml): 90%
- cytotoxicity at 0.05 µg/mL ([3]; Mus musculus, L1210, 0.05 μg/ml): 96%
- cytotoxicity at 0.1 µg/mL ([3]; Mus musculus, L1210, 0.1 μg/ml): 99%
- inhibition at 0.1 µg/mL ([3]; Mus musculus, L1210, 0.1 μg/ml, read-out: % Inhibitiion): 63%
- cytotoxicity at […] ([3]; Mus musculus, L1210, 0.25 μg/ml): 99%
- inhibition at […] ([3]; Mus musculus, L1210, 0.25 μg/ml, read-out: % Inhibitiion): 96%
- cytotoxicity at 0.5 µg/mL ([3]; Mus musculus, L1210, 0.5 μg/ml): 100%
- inhibition at 0.5 µg/mL ([3]; Mus musculus, L1210, 0.5 μg/ml, read-out: % Inhibitiion): 99%
- inhibition at 1 µg/mL ([3]; Mus musculus, L1210, 1 μg/ml, read-out: % Inhibitiion): 100%
- inhibition at […] ([3]; Mus musculus, L1210, 2.5 μg/ml, read-out: % Inhibitiion): 100%
- inhibition at 5 µg/mL ([3]; Mus musculus, L1210, 5 μg/ml, read-out: % Inhibitiion): 100%
- L1210 cytotoxicity (in words) ([3]; listed as 1): showed both cytotoxicity and morphological alteration
- IC50 (P3HR1): 0.0673 nM
- IC50 (FADU): 0.00499 nM
- active against tumor cell line in vitro (concentration) (A-549): 0.05 mg/mL
- IC50 (H9): 0.031 nM
- active against tumor cell line in vitro (concentration) (MEL-28): 0.05 mg/mL
- IC50 (K562): 0.0157 nM

From patent US7109244B2, “Compositions and methods comprising long-chain, straight-chain 2-amino-3-hydroxyalkanes” (priority 1997, dated 2006)
